According to patent publication US20110038889A1, “METHODS AND COMPOSITIONS FOR ALTERING CELL FUNCTION” (ALLTECH, INC., priority 2005, published 2011):
Blank lines part the entries; values can stand above or below the compound they belong to.

What was measured:
[1] = Body weight of mice on selenium diets; format: in vivo, mouse
Excerpt: (§1) Animal Care. Male C57BL/6J mice were housed singly and started on the experimental diets described below immediately after weaning (21 days of age). The mice were maintained in the Shared Aging Rodent Facility at the William S. Middleton Memorial Veterans Administration Medical Center (Madison, Wis.). Temperature and humidity were maintained at constant levels. Room light was controlled to provide 12-hr cycles of light and dark.
Experimental diets were created by Harlan Teklad (Madison, Wis.). Selenium content of the diets was determined by Covance Inc. (Madison, Wis.). […]
Thus, it was an object of the present invention to determine whether compositions and methods of the present invention could alter the expression levels (e.g., mRNA levels) of various genes. One group of genes analyzed were genes classically associated with selenium. As described above, the expression levels of genes were analyzed between mice with and without dietary selenium, or, between mice fed different sources of selenium) (See, e.g., Table 1, below).

Gst zeta 1 (Gstz1) = test: Microarray gene expression, mouse brain: Gstz1; format: in vivo; settings: diet 1 ppm Se, 100 days, relative to Se-deficient animals, negative = down-regulated, * significant
Excerpt: as §1
(§2) Experimental diets were created by Harlan Teklad (Madison, Wis.). Selenium content of the diets was determined by Covance Inc. (Madison, Wis.). Five (5) animals were included in each of the following treatment groups: a diet deficient in selenium (SD); a diet supplemented with selenomethionine (SM, obtained from Sigma,St. Louis, Mo.) such that the final selenium content of the diet was one (1) part per million; a diet supplemented with sodium selenite (SS, Sigma) such that the final concentration of selenium in this diet was one (1) part per million; or a diet supplemented with the yeast selenium SEL-PLEX (SP, Alltech, Lexington, Ky.), such that the final concentration of selenium in this diet was one (1) part per million. SEL-PLEX. […]
(§3) Tissue sample preparation and microarray analysis. […] For intestinal expression studies, the intestine was flushed twice with saline solution and small intestine was measured and divided in three equal segments. […]

Selenoprotein W (SelW) = test: Microarray gene expression, mouse intestine: SelW; format: in vivo; settings: diet 1 ppm Se, 100 days, vs selenium-deficient diet
Excerpt: as §1, §2, §3

[2] = tested on: Glutathione S-transferase, mu1 (Gstm1); test: Microarray gene expression, mouse intestine: Gstm1; format: in vivo; settings: diet 1 ppm Se, 100 days, vs Se-deficient diets, negative = down-regulated, NS = not significant
Excerpt: as §1, §2, §3

Cathepsin Z = test: Microarray gene expression, mouse cerebral cortex: Cathepsin Z; format: in vivo; settings: diet 1 ppm Se, 100 days, relative to Se-deficient mice, negative = down-regulated, * significant
Excerpt: as §1, §2, §3

[3] = tested on: Glutathione S-transferase, mu3 (Gstm3); test: Microarray gene expression, mouse intestine: Gstm3; format: in vivo; settings: diet 1 ppm Se, 100 days, vs Se-deficient diets, negative = down-regulated, NS = not significant
Excerpt: as §1, §2, §3

[4] = tested on: Glutathione S-transferase, mu2 (Gstm2); test: Microarray gene expression, mouse intestine: Gstm2; format: in vivo; settings: diet 1 ppm Se, 100 days, vs Se-deficient diets, negative = down-regulated, NS = not significant
Excerpt: as §1, §2, §3

[5] = tested on: Glutathione S-transferase, theta 2 (Gstt2); test: Microarray gene expression, mouse intestine: Gstt2; format: in vivo; settings: diet 1 ppm Se, 100 days, vs Se-deficient diets, negative = down-regulated, NS = not significant
Excerpt: as §1, §2, §3

[6] = tested on: Growth arrest and DNA-damage-inducible 45 gamma (Gadd45g); test: Microarray gene expression, mouse intestine: Gadd45g; format: in vivo; settings: diet 1 ppm Se, 100 days, vs selenium-deficient diet, negative = down-regulated
Excerpt: as §1, §2, §3

[7] = tested on: Glutathione S-transferase, alpha 3 (Gsta3); test: Microarray gene expression, mouse intestine: Gsta3; format: in vivo; settings: diet 1 ppm Se, 100 days, vs Se-deficient diets, negative = down-regulated, NS = not significant
Excerpt: as §1, §2, §3

calpain-5 = test: Expression level of calpain genes after selenium administration; format: in vivo; settings: tissue not stated; + up, − down; * not explained at this place
Method: Compositions and methods of the present invention were analyzed to determine if they were capable of altering the expression levels of calpain genes. Compositions comprising various forms of selenium (e.g., SeM, Sod-sel, and SEL-PLEX) were administered to subjects and the expression levels of calpain genes monitored. The expression level of calpain-5 was altered by treatment in the following ways: free selenomethionine (SM) +1.32*, Sod-sel −1.07, SEL-PLEX −1.44*.

[8] = tested on: Thioredoxin Reductase 1 gene; test: Microarray gene expression, mouse intestine: Thioredoxin Reductase 1; format: in vivo; settings: diet 1 ppm Se, 100 days, vs selenium-deficient diet, all p <0.01
Excerpt: as §1, §2, §3

SelR (Selenoprotein X1) = test: Microarray gene expression, mouse intestine: SelR; format: in vivo; settings: diet 1 ppm Se, 100 days, vs selenium-deficient diet, p<0.01 Sod-sel, p<0.05 SEL-PLEX
Excerpt: as §1, §2, §3

[9] = tested on: Type 1 iodothyronine deiodinase; test: Microarray gene expression, mouse intestine: Type 1 iodothyronine deiodinase; format: in vivo; settings: diet 1 ppm Se, 100 days, vs selenium-deficient diet
Excerpt: as §1, §2, §3

[10] = tested on: transforming growth factor beta 2 (TGF-β2); test: Microarray gene expression, mouse intestine: TGF-β2; format: in vivo; settings: Example 5 (intestine); diet 1 ppm Se, 100 days; compared to controls
Excerpt: as §1, §2, §3

[11] = tested on: LIM homeobox protein 8 gene (Lhx8); test: Microarray gene expression, mouse intestine: Lhx8; format: in vivo; settings: Example 5 (intestine); diet 1 ppm Se, 100 days; vs Se-deficient subjects; p<0.01 for SEL-PLEX
Excerpt: as §1, §2, §3

[12] = tested on: Complement component 1, q subcomponent, gamma polypeptide, C1qg; test: Microarray gene expression, mouse cerebral cortex: C1qg; format: in vivo; settings: diet 1 ppm Se, 100 days, vs selenium-deficient diet, negative = down-regulated, * p<0.01
Excerpt: as §1, §2, §3

Neurogenin 3 (Neurog3) = test: Microarray gene expression, mouse intestine: Neurog3; format: in vivo; settings: Example 6 (intestine); diet 1 ppm Se, 100 days; vs selenium-deficient diet
Excerpt: as §1, §2, §3

[13] = tested on: type II iodothyronine deiodinase (Dio2); test: Microarray gene expression, mouse intestine: Dio2; format: in vivo; settings: Example 4 (intestine); diet 1 ppm Se, 100 days; vs selenium-deficient diet
Excerpt: as §1, §2, §3

selenoprotein N1 (Sepn1) = test: Microarray gene expression, mouse intestine: Sepn1; format: in vivo; settings: diet 1 ppm Se, 100 days, vs selenium-deficient diet, p<0.02 for SEL-PLEX
Excerpt: as §1, §2, §3

Glyoxalase 1 (Glo1) = test: Microarray gene expression, mouse intestine: Glo1; format: in vivo; settings: Example 4 (intestine); diet 1 ppm Se, 100 days; vs selenium-deficient diet; p<0.01 for SEL-PLEX
Excerpt: as §1, §2, §3

[14] = tested on: sprouty homolog 2 gene (Spry2); test: Microarray gene expression, mouse intestine: Spry2; format: in vivo; settings: Example 7 (intestine); diet 1 ppm Se, 100 days; relative to Se-deficient controls
Excerpt: as §1, §2, §3

CORS-26 = test: Microarray gene expression, mouse cerebral cortex: CORS-26; format: in vivo; settings: Example 10 (cerebral cortex); diet 1 ppm Se, 100 days; vs selenium-deficient diet
Excerpt: as §1, §2, §3

[15] = Hen brain Se concentration after dietary selenium sources; format: in vivo, White-Egg-Laying Hens; settings: 0.3 ppm Se in hen diet; basal diet 870 ppb; Selenosource one sample only
Method: (§4) Compositions and methods of the present invention were utilized to evaluate the effects of various Se sources on the accumulation of brain Se concentrations in hens and their offspring.
(§5) The study was conducted at the Coldstream Research Facility from Jun. 28, 2004 until Nov. 16, 2004. Six dietary treatments were fed to a total of 48 hens (r=8) that were bred on three consecutive days starting on Sep. 16, 2004.
(§6) The dietary treatments were as follows: Basal (no added Se) Selenite (0.3 ppm) SEL-PLEX (0.3 ppm) Tepsel (0.3 ppm) Se 2000 (0.3 ppm) Selenosource (0.3 ppm)
(§7) Chicks that hatched were divided into two groups. Half of the chicks were killed for brain collection and the remaining chicks were allowed to grow for 14 days on a Se deficient diet, at which time they were terminated for brain collection. Hen brains were analyzed for Se content individually, whereas the chick brains were homogenized and pooled because of small sample size.

[16] = Chick brain Se concentration at day 14 (offspring of treated hens); format: in vivo, chicks (offspring of white-egg-laying hens); settings: chicks of hens fed 0.3 ppm Se; chicks grown 14 days on Se deficient diet; pooled brains; basal 786 ppb
Method: as §4, §5, §6, §7

Structure (SMILES): O=[Se](O)O [Sod-sel, sodium selenite]
Body weights of mice ([1]; compared among selenium-deficient, Se-meth, Sod-sel and SEL-PLEX diets (FIG. 1)): No significant differences | FC (fold change) of Gstz1 expression in brain (Gst zeta 1 (Gstz1)): −1.3 fold | Fold upregulation of Selenoprotein W (SelW) expression (Selenoprotein W (SelW)): 5.1 fold | FC (fold change) of Gstm1 expression [2]: −2.4 fold | FC (fold change) of Cathepsin Z expression (Cathepsin Z): −1.30* fold | FC (fold change) of Gstm3 expression [3]: −2.7 fold | FC (fold change) of Gstm2 expression [4]: −2.1 fold | FC (fold change) of Gstt2 expression [5]: −1.3 fold | FC (fold change) of Gadd45g expression [6]: −2.0 (p < 0.01) fold | FC (fold change) of Gsta3 expression [7]: −2.3 fold | Alteration of expression level of calpain-5 (calpain-5): −1.07 | Fold increase in expression of the Thioredoxin Reductase 1 gene [8]: 1.7 fold | Fold upregulation of SelR gene expression (SelR (Selenoprotein X1)): 1.3 fold | Fold increase in expression level of Type 1 iodothyronine deiodinase [9]: 2.8 fold

Fold down-regulation of Dio2 expression [13]: no ability to alter | Fold reduction of Glo1 expression (Glyoxalase 1 (Glo1)): not significantly affected
Structure (SMILES): C[Se]CC[C@H](N)C(=O)O [SeM, selenomethionine]
Body weights of mice ([1]; mouse, in vivo): No significant differences | Fold upregulation of TGF-β2 expression [10]: not altered | Fold upregulation of Selenoprotein W (SelW) expression (Selenoprotein W (SelW)): not significantly altered | Fold upregulation of Lhx8 expression [11]: not significantly different | FC (fold change) of C1qg expression [12]: 1.0 fold | FC (fold change) of Gadd45g expression [6]: −1.5 (p < 0.05) fold | Fold upregulation of Neurog3 expression (Neurogenin 3 (Neurog3)): no significant alteration | Fold increase of selenoprotein N1 (Sepn1) gene expression (selenoprotein N1 (Sepn1)): not significantly affected | Fold upregulation of SelR gene expression (SelR (Selenoprotein X1)): not significantly affected | Fold reduction in Spry2 gene expression [14]: no alteration | Fold increase in expression level of Type 1 iodothyronine deiodinase [9]: 2.0 fold | Fold reduction in expression of CORS-26 (CORS-26): no alteration

Structure (SMILES): O=[Se](O)O [Selenite]
Hen Brain Se Concentration [15]: 850 ppb | Chick Brain Se Concentration at day 14 [16]: 784 ppb
